Source: ChEMBL document CHEMBL1157539, “Thousands of chemical starting points for antimalarial lead identification” (Nature, 2010)
Values joined by “and” are separate entries in the source; they are usually repeats but may differ in a detail not shown here. Equal values may be shown once.

System: Plasmodium falciparum
Assay: GSK_TCMDC: Inhibition of Plasmodium falciparum 3D7 in whole erythrocytes, using parasite LDH activity as an index of growth.
Format: functional, organism-based

SMILES | XC50 (Plasmodium falciparum, 3D7) [nM] | XC50
CN(C)c1ccc(-c2ccc(C(=O)NC3CCN(Cc4cccc(C(F)(F)F)c4)CC3)s2)cc1 | 985 | 
COc1ccccc1C1CCN(C2CCC(NC(=O)/C=C/c3cccc(Cl)c3)CC2)CC1 (stereo unspecified) | 1030 | 
CSc1nccc(-c2ccc(S(=O)(=O)NC3CCC(CN4CCC(c5c[nH]c6ccccc56)CC4)CC3)s2)n1 (stereo unspecified) |  | 811 nM and 254 nM
CCc1ccc(C2CCN(CCCCNC(=O)c3ccc(-c4ccc(C(F)(F)F)cc4)cc3)CC2)c(OCCO)c1 | 410 | 
OCCOCn1cnc2cnc(N[C@H]3OC[C@H](O)[C@@H](O)[C@@H]3O)nc21 | 1640 | 
COC(=O)c1ccc(C2OC3(C(=O)c4ccccc4C3=O)C(OC)=C2Cl)cc1C(C)=O (stereo unspecified) | 546 | 
Oc1cc2c(cc1CN1CCN(Cc3ccccc3F)CC1)CCC2 | 761 | 
Cc1cc(N)c2cc(NC(=O)/C=C/c3ccc([N+](=O)[O-])cc3)ccc2n1 | 669 | 
O=C(Cc1c[nH]cn1)Nc1ccc(-c2ccc(-c3nc4ccccc4[nH]3)s2)cc1 | 1060 | 
Cc1ccc(-c2nnc(Nc3ccc(OCC(N)=O)cc3)c3ccccc23)cc1S(=O)(=O)NCC1CCCO1 (stereo unspecified) | 753 | 
O=C(NCCCCCN1CCC(c2c[nH]c3ccccc23)CC1)c1ccc(Cl)c(Cl)c1 | 1360 | 
N#Cc1ccc(NC(=O)NC2CCN(CCCCCNC(=O)/C=C/c3ccc(Cl)c(Cl)c3)CC2)cc1 | 800 | 
O=C(Nc1ccc(Cl)c(Cl)c1)N(Cc1ccccc1Br)C1CCNCC1 | 1030 | 
Fc1cccc(C=NN=c2cc[nH]c3ccc(C(F)(F)F)cc23)c1 | 733 | 
CN1CCC(NCc2cccc(-c3cccc(-c4nc5cc(C(F)(F)F)ccc5[nH]4)c3)c2)CC1 | 142 | 
COc1ccc(CN(C)CCCSc2ccc(NC(=O)c3cccc4c(=O)cc(-c5ccccc5)[nH]c34)cc2)cc1OC | 920 | 
O=C(/C=C/c1ccc(Cl)c(Cl)c1)NCCCCCN1CCC(NC(=O)Nc2ccc(Cl)cc2F)CC1 | 313 | 
CCOc1ccc2[nH]c(C)cc(=NN=Cc3ccncc3)c2c1 | 991 | 
O=[N+]([O-])c1cccc(CNC2CCN(Cc3ccc(-c4ccccc4)cc3)CC2)c1 | 231 | 
Oc1ccc(Cl)cc1CN1CCC2(CCCN(CC3CCC3)C2)C1 (stereo unspecified) | 368 | 
CN1CCC(NCc2ccc(S(=O)(=O)Nc3ccc(Oc4cccc(Cl)c4)cc3)cc2)CC1 | 735 | 
O=C1COC2(CN1CC1CCN(Cc3ccc(O)c(Cl)c3)C1)c1ccccc1-c1ccccc12 (stereo unspecified) | 1060 | 
CC1(C)CCC(C)(C)c2c1ccc(C1CCN(CCCCNC(=O)c3ccc(-c4ccc(C#N)cc4)cc3)CC1)c2O | 226 | 
Cc1cccc2nc(-c3cccc(-c4cccc(CNCCN5CCNCC5)c4)c3)[nH]c12 | 970 | 

SMILES | XC50 (Plasmodium falciparum, 3D7) [nM] | XC50
O=C(NCCCN1CCOCC1)c1csc(Nc2ccc(Cl)c(Cl)c2)n1 | 919 | 
CN1CC=C(c2c[nH]c3ccc(-c4ccccc4)cc23)CC1 | 775 | 
N=c1ccn(CC(=NO)c2ccc(Cl)c(Cl)c2)cc1 | 943 | 
Cc1cc(N)c2cc(NC(=O)c3cccc4ccccc34)ccc2n1 | 844 | 
O=C(/C=C/c1cccc2c1OCO2)Nc1ccnc2ccncc12 | 895 | 
COc1ccc2nccc(N/N=C/c3ccc([N+](=O)[O-])cc3)c2c1 | 712 | 
O=C(/C=C/c1ccc(Cl)c(Cl)c1)NCCCCCN1CCC(c2c[nH]c3cc(O)ccc23)CC1 | 745 | 
COc1ccc2nccc([C@@H](O)CN3CCC(NCc4cc5cccc(O)c5[nH]4)CC3)c2c1 | 836 | 
Cn1cnc2nc(NCCc3ccccc3)nc(NCc3cccc4ccccc34)c21 | 327 | 
CCCCC(CC)C(=O)C(NC(=O)[C@H](CSC(c1ccccc1)(c1ccccc1)c1ccccc1)NC(=O)OC(C)(C)C)C(=O)OC (stereo partly specified) | 1020 | 
COc1ccc2nc(Nc3nc4cnccc4[nH]3)sc2c1 | 1130 | 
COc1ccc(-n2nc(C)c3c2NC(=O)CC3c2ccccc2OCc2ccc(F)cc2)cc1 (stereo unspecified) | 855 | 
Cc1ccc(NC(C)C(=O)Nc2ccccc2)cc1S(=O)(=O)N1CCCCCC1 (stereo unspecified) | 62.4 | 
Cc1ccccc1NC(=S)NC1CCN(CCCCCNC(=O)/C=C/c2ccc(Cl)c(Cl)c2)CC1 | 795 | 
O=C(/C=C/c1ccc(Cl)c(Cl)c1)NCCCCCN1CCCN(C(=O)Nc2ccc(C(F)(F)F)cc2)CC1 | 688 | 
O=C(c1cc(C(=O)NCc2ccc(Cl)cc2)c(=O)n(Cc2ccc(Cl)cc2)c1)c1cc(F)ccc1O | 949 | 
O=C(CNCC1CCCCC1)Nc1cc(C(F)(F)F)ccc1Cl | 982 | 
CN1CCN(c2ccnc3ccc(NC(=O)Nc4c(Cl)cccc4Cl)cc23)CC1 | 877 | 
O=C(Nc1cccc(CN2CCCN(Cc3cccc(O)c3)CC2)c1)c1ccc(Cl)c(Cl)c1 | 664 | 
O=C(/C=C/c1ccc(C(F)(F)F)cc1)NCCCCCN1CCCN(C(=O)Nc2cccc(Cl)c2)CC1 | 992 | 
COc1ccc(-c2ccc(NC(=O)c3ccc(Cl)cc3)cc2)cc1CN1CCNCC1 | 129 | 
Cc1cc(C)c(NC(=O)N2CCCN(CCCCCNC(=O)/C=C/c3ccc(Cl)c(Cl)c3)CC2)c(C)c1 | 968 | 
Cc1noc(C)c1-c1cccc(CNCc2cccc(-c3cccc(-c4nc5cc(C(F)(F)F)ccc5[nH]4)c3)c2)c1 | 456 | 
CN/C(=N\O)NCCN(C)C | 1180 | 

SMILES | XC50 (Plasmodium falciparum, 3D7) [nM] | XC50
CCCC(=O)Nc1ccc(Nc2nc(C)cc(N3CCCC3)n2)cc1 | 1490 | 
CN(C)Cc1ccc(-c2ccc3c(Nc4ccc(Oc5ccccc5)cc4)ccnc3c2)o1 | 788 | 
Cc1cccc(-c2cccc3c(NC(=O)N4CCc5cc6nccc(N7CCN8CCC[C@H]8C7)c6cc54)cccc23)n1 | 916 | 
CCOc1ccc2[nH]c(C)cc(=NN=Cc3ccccc3)c2c1 | 785 | 
NC(=O)C1Cc2ccccc2CN1CC(=O)Nc1ccccc1Sc1ccccc1 (stereo unspecified) | 68.4 | 
O=C(Cn1c(CCc2cccc(F)c2F)cc(=O)c2cccnc21)N(CCN1CCCC1)Cc1ccc(-c2ccc(C(F)(F)F)cc2)cc1 | 890 | 
O=C(Nc1ccccc1)N(Cc1cccc(-c2ccc(CNC3CCCC3)cc2)c1)C1CCN(Cc2ccccc2)CC1 | 394 | 
O=C(NC1CC1)c1ccc(N2CCC(Cc3ccccc3)CC2)nc1 | 761 | 
Cc1ccc(-c2ccc3c(c2)C=C(C(=O)NC2CCN(CCNC(=O)c4cccc(C(F)(F)F)c4)CC2)CCC3)cc1 | 512 | 
CN1CCCC1CCNCc1cccc(-c2cnc(N3CCCC(C)(C)C3)nc2)c1 (stereo unspecified) | 927 | 
CN(C)CCN1CCN(Cc2ccc(-c3cccc(-c4nc5ccccc5[nH]4)c3)cc2)CC1 | 199 | 
Cc1ccc(Nc2nc(C)cc(N3CCN(c4ccccc4)CC3)n2)cc1 | 1530 | 
COc1ccc(-c2ccccc2)cc1NC(=S)NC1CCC(CN2CCC(c3c[nH]c4ccccc34)CC2)CC1 (stereo unspecified) | 652 | 740 nM
COc1cc(Br)c(S(=O)(=O)n2cc(CN3CCC(N)CC3)c3cc(Cl)ccc32)cc1OC | 985 | 
COc1ccccc1C1CC(c2ccc(C)cc2)=NN1C(=O)c1ccccc1 (stereo unspecified) | 886 | 
COc1cc2c(cc1C(F)(F)F)N(C(=O)Nc1cccc(-c3ccc(CN(C)C)cc3)c1)CC2 | 710 | 
O=C(NC1CCN(CCN2CCC(c3ccccc3C(F)(F)F)CC2)CC1)c1ccc(-c2ccc(Cl)cc2)cc1 | 714 | 
CC(C)c1cccc(OCC2CCN(c3ncc(C(=O)Nc4ccccc4)cc3Cl)CC2)c1 | 1060 | 
COCCCNc1nc2cc(OC)c(OC)cc2c2nc(-c3ccccc3)nn12 | 192 | 
O=C(Nc1cccc(-c2ccc(-c3nc4ccccc4[nH]3)cc2)c1)c1csnn1 | 1070 | 
O=C(NCCCCN1CCC(c2ccc3c(c2OCc2ccncc2)CCCC3)CC1)c1ccc(NC(=O)c2ccc(Cl)cc2)cc1 | 218 | 
CCOCc1cn(CC(=O)c2ccc(-c3ccccc3)cc2)c(C)nc1=N | 319 | 
CC(C)(C)NCCN(Cc1ccc(-c2ccc(C(F)(F)F)cc2)cc1)C(=O)Cn1c(CCc2cccc(F)c2F)nc(=O)c2c1CCC2 | 948 | 
Cc1nc(-c2cccc(C(F)(F)F)c2)n2nc(Nc3ccc(OCCN4CCCC4)cc3)ncc12 | 751 | 

SMILES | XC50 (Plasmodium falciparum, 3D7) [nM] | XC50
CC[C@H]1CN2CC[C@@H]1C[C@H]2[C@H](O)c1cc(N2CCC(c3ccccc3)CC2)nc2ccc(OC)cc12 | 346 | 
CCOC(=O)CCCc1cc(NC2CCN(C)CC2)nc(Nc2ccc(C)cc2)n1 | 263 | 
O=C(Nc1ccccc1)N(Cc1ccccc1-c1cccc(CNC2CCCC2)c1)C1CCN(Cc2ccccc2)CC1 | 168 | 
CCCCOc1ccc(C(=O)C(CCC(CNC(C)(C)C)C(=O)c2ccc(OCCCC)cc2)CNC(C)(C)C)cc1 (stereo unspecified) | 1020 | 
CN1CCCC(COc2cc3c(cc2Br)CCN3C(=O)Nc2ccc(-c3ccncc3)c(Cl)c2)C1 (stereo unspecified) | 234 | 
O=C(Nc1ccc(Cl)cc1)Nc1ccc(-c2cccc(-c3nc4cc(F)ccc4[nH]3)c2)cc1 | 292 | 
COc1cc2c(OC)cccc2cc1CNCCCCCCNCc1cc2cccc(OC)c2cc1OC | 823 | 
CCCN1CCN(c2ccc(NS(=O)(=O)c3ccc(C(=O)Nc4ccc(Cl)cc4)cc3)cc2)CC1 | 1110 | 
COc1ccc(-c2ccc(NC(=O)c3cccc(Cl)c3)cc2)cc1CNC(C)C | 466 | 
O=C(CCc1c[nH]cn1)Nc1cccc(-c2cccc(-c3nc4ccccc4[nH]3)c2)c1 | 660 | 
N#CCCn1nc(-c2ccc(Cl)cc2)c2c(c1=O)CCCC2 | 892 | 
c1ccc(Oc2ccc(Nc3ccnc4cc(-c5csc(CNCCN6CCOCC6)n5)ccc34)cc2)cc1 | 708 | 
COc1ccc2nccc([C@@H](O)CN3CCC(NC(=O)/C=C/c4ccnc5ccccc45)CC3)c2c1 | 939 | 
COc1cccc(NC(=O)Nc2c(-c3cccc(C(F)(F)F)c3)c(C(F)(F)F)nn2C)c1 | 911 | 
CN1CCN(S(=O)(=O)c2cccc(Nc3nccc(N(C)c4ccc5c(c4)nc(NC(=O)c4cccs4)n5C)n3)c2)CC1 | 746 | 
CCN(CC)CCn1c(=N)n(CC(=O)c2ccc(-c3ccccc3)cc2)c2ccccc21 | 1140 | 
CN1CCN(c2ccc3[nH]c(-c4ccc5[nH]c(-c6ccc([N+](=O)[O-])c(N)c6)nc5c4)nc3c2)CC1 | 105 | 
COc1cc2ccccc2c(CNCCCCCCNCc2c(OC)c(OC)cc3ccccc23)c1OC | 1110 | 
CC(C)(C)c1ccc(CN2CCC(CNC(=O)c3cc(-c4cccc(Cl)c4)cs3)C2)cc1 (stereo unspecified) | 1160 | 
CN1CCN(c2cc(NC(=O)Nc3ccc(-c4ccncc4)c(Cl)c3)ccc2Br)CC1 | 899 | 
Cc1cc(N(CCO)CCCN2CCCCC2)nc(Nc2ccc(Cl)cc2)n1 | 547 | 
CN1CCC(NCc2ccc(-c3ccc(S(=O)(=O)NC4CCC4)s3)cc2)CC1 | 846 | 
COc1ccc(CN2CCC(CNCCc3ccccc3Cl)CC2)cc1 | 1110 | 
